The values that follow come from US12600925B2, “Laundry sanitizing and softening compositions” (Reckitt Benckiser LLC, priority 2023, dated 2026).

The assay relates to Staphylococcus epidermidis. In words: Minimum inhibitory concentration, BKC / polymer synergy, 96-well microtiter. Format: cell-based. As to conditions: second test (lower line of each polymer); 24 h, 37° C.; 100% active. As for the experimental part:
Take well-defined and typical colonies of Staphylococcus epidermidis from a recent plate of tryptic soy agar (TSA), dissolve and vortex them in a tube containing 30 mL of tryptic soy broth (TSB) and incubate for 17+/−1h at 37° C.+/−1° C. Quantify by plate count in TSA (incubated for 48h+/−1h at 37° C.+/−1° C.). Use the broth culture suspension within seven (7) days after the incubation period. Vortex and take 0.2 mL from the broth culture and dilute in appropriate volume of 0.85% NaCl to normalize the strain at 3-5×10^5 CFU/mL Using a micropipette, add 100 μL of TSB in a 96-well microtiter plate format. […] (both samples are the same) Using a micropipette take 100 μL of the sample from column 2 and dilute it in column 3 performing a 1:1 dilution with the diluent already present in the wells, proceeding with a serial dilution up to column 9. Discard the remaining 100 μL. […] Dispense 100 μL of inoculum using a micropipette into each well in columns 2 to 10. Columns 1 and 11 are the sample sterility test and negative test control columns, respectively. No growth should be observed in these columns. Column 10 is the positive test control and growth should be observed. […] Incubate the microwell plate for 24h+/−1h at 37° C.+/−1° C. The minimum inhibitory concentration (MIC) is determined by visually checking the wells for growth. […]

Regarding “C12-16 alkyldimethylbenzylammonium chloride [BKC]”, the “BKC MIC in ppm alone” value is listed as 0.3-0.8 ppm.
